Reference: patent publication US7629439B2, “Peptides derived from the protein MMP-2, and the use thereof in antitumoral immunotherapy” (INSERM (Institut National de la Sante et de la Recherche …, priority 2003, dated 2009)

Tested on: T2 cells
Assay: 51Cr release: sensitization of T2 cells to lysis by CTL clone M134.12
Assay type: cell-based
Details: 51Cr-labeled T2 cells, 60 minutes at 37° C. with peptide, effector/target ratio 10/1, 4 hours; compared among four peptides (FIG. 4)
Protocol: These peptides were used to sensitize T2 cells labeled with ^51Cr. These cells were incubated for 60 minutes at 37° C. with various concentrations of each of the peptides to be tested. CTL M134.12 effector cells were then added at an effector cell/target cell ratio of 10/1. The amount of ^51Cr released into the supernatant is measured 4 hours later.
Along the y-axis, the percentage specific lysis.
Along the x-axis, the concentration of peptide LGLPPDVQRV (●) (SEQ ID NO: 2), GLPPDVQRV (▪) (SEQ ID NO: 1), LPPDVQRV (▴) (SEQ ID NO: 3), or GLPPDVQR(X) (SEQ ID NO: 4) in nM.

## GLPPDVQRV (listed as Homo sapiens) [peptide derived from region 556-593 of the MMP-2 protein, presented by HLA-A*0201]
  sensitizing T2 cells to lysis by the CTL clone M134.12 (percentage specific lysis): most effective
